Patent US20190337927A1, “PHOTOPROTECTIVE COMPOSITIONS CONTAINING MALASSEZIA-DERIVED COMPOUNDS AND/OR CHEMICAL ANALOGS THEREOF” (priority 2018, published 2019)
Like-named read-outs stand apart in the source and are kept apart here.

Columns and labels:
[1] = target: T1, arylhydrocarbon receptor (AhR) (Homo sapiens, UniProt P35869); settings: cited from earlier work
T1 sequence (P35869 11-848): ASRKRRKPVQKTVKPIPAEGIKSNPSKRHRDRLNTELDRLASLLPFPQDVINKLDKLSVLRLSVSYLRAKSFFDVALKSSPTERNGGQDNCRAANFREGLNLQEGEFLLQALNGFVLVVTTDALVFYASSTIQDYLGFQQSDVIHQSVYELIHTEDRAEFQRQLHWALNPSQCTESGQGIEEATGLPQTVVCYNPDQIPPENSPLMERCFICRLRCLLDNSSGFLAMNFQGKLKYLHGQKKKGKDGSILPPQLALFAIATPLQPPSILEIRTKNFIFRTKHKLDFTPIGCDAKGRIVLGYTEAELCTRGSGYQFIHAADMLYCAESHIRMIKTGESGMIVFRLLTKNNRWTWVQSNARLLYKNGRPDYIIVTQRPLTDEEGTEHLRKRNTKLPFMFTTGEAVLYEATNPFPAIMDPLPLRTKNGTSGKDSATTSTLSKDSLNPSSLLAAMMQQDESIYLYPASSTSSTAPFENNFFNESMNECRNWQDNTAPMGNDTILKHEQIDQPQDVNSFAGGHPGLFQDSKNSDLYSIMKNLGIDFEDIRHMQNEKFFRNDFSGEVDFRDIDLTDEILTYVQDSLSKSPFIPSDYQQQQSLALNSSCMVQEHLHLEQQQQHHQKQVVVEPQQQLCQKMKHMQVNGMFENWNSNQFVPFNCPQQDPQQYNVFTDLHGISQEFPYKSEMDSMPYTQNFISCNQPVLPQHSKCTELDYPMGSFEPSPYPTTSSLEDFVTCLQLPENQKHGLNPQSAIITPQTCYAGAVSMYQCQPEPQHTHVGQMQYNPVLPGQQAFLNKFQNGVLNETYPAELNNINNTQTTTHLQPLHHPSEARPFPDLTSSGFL

Skin Type IV female = experiment: In vivo photoprotection proof of concept study: UVB-induced erythema after topical treatment; design: species or system human; settings: one subject
Description: The Malassezin 1% formulation used in this study contained the following ingredients: Water (aqua)—65.939%; Dimethyl isosorbide—20.000%; Olive Oil Glycereth-8 Esters—3.000%; Glycerin—2.991%; Coconut Alkanes—2.700%; Hydroxyethyl Acrylate/Sodium Acryloyldimethyl Taurate Copolymer—1.700%; Malassezin—1.000%; Pentylene Glycol—1.000%; Phenoxyethanol—0.640%; Coco-Caprylate/Caprate—0.300%; Caprylyl Glycol—0.200%; Chlorphenesin—0.160%; Sorbitan Isostearate—0.140%; Tocopherl—0.100%; Polysorbate 60—0.080%; and Disodium EDTA—0.050%.
A Skin Type IV […] was included in this Proof of Concept study.
A template of 6 squares was placed on the lower left back (1.5 cm×1.5 cm) of the test subject See FIG. 7.
Twenty-four hours after irradiation, the subject returned for MED assessment.
A second right lower square was treated twice daily from day 4 to day 7, and a third medial square for one application on day 7. The product vehicle was applied for 7 days twice daily on the left back. The subject returned to the research center for irradiation on day 7. Each test site was irradiated with 120 mJ of UVB exposure. The subject returned in 24 hours for assessment of phototoxicity/photoprotection.
The subject continued the experiment, receiving Malassezin 1% for a total of 14 days. […]

[2] = test system: primary human melanocytes; settings: cited from earlier work
[3] = cited from earlier work
Candida albicans = settings: cited from earlier work
staphylococci = settings: cited from earlier work
yeast model = settings: cited from earlier work

O=C1Nc2ccccc2/C1=C1/Nc2ccccc2C1=O [Indirubin]
AhR activity [1]: agonist

O=Cc1c(Cc2c[nH]c3ccccc23)[nH]c2ccccc12 [Malassezin, 2-(1H-indol-3-ylmethyl)-1H-indole-3-carbaldehyde]
UV-protective properties, study conclusion (Skin Type IV female): UV-protective properties
AhR activity [1]: agonist
apoptosis induction [2]: induces apoptosis

O=C(c1c[nH]c2ccccc12)c1nccc2c1[nH]c1ccccc12 [Pityriacitrin]
UV protective effect overall ([3]; in vitro and in vivo tests in humans): very weak
sun protection factor (SPF) ([3]; pityriacitrin concentration 1.25% in cream): 1.4
sun protection factor (SPF) ([3]; pityriacitrin concentration 2.5% in cream): 1.5
sun protection factor (SPF) ([3]; pityriacitrin concentration 5% in cream): 1.7
UV-protective effect (Candida albicans): UV-protective effect
toxicity (Candida albicans; ranges tested): no toxicity
UV-protective effect (staphylococci): UV-protective effect
toxicity (staphylococci; ranges tested): no toxicity

O=C1OC(c2c[nH]c3ccccc23)=C(c2c[nH]c3ccccc23)C1=O [Pityrialactone]
UV protective properties (yeast model): confirmed
